Reference: patent US9145445B2 (priority 2003, dated 2015)
Several values for one entry are separate records, joined by “and”; a condition that tells them apart may be missing. Identical values can stand only once. Like-named read-outs stand apart in the source and are kept apart here. Where a SMILES comes first, the peptide text is derived from it.

How the values were obtained:
[1] = tested on: PT immobilized on a CM5 chip; format: binding, Bordetella pertussis
PT [2] = settings: phage display, Bogdan, et al.; cited from earlier work
Sequence of PT (P04977 35-269 limits assumed): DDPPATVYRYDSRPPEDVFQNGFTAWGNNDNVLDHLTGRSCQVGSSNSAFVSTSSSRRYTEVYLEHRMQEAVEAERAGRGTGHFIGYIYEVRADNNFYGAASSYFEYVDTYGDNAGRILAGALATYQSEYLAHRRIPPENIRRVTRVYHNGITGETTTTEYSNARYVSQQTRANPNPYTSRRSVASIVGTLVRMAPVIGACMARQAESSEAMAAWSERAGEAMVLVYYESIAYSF
Sequence of PT (P04978 28-226 limits assumed, further chain): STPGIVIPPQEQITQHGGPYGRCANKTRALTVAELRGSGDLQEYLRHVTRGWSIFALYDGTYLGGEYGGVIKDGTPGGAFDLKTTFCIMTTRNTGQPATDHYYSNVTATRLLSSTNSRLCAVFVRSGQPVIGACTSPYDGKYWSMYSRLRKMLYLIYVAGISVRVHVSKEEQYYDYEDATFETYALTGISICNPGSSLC
Sequence of PT (P04979 29-227 limits assumed, further chain): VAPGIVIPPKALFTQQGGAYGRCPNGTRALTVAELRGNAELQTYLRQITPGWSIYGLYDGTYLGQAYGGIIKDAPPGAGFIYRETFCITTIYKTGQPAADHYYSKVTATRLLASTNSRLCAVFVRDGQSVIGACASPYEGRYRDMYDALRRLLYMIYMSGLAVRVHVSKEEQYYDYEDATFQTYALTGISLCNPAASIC
Sequence of PT (P0A3R5 43-152 limits assumed, further chain): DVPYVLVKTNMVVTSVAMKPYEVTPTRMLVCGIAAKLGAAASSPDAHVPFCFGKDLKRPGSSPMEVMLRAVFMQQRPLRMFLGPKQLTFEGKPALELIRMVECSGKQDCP
Sequence of PT (P04981 35-133 limits assumed, further chain): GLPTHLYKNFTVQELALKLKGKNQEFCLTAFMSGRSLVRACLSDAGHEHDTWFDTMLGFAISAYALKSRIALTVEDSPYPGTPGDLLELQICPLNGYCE

[3] = tested on: PT immobilized on Streptavidin beads
Sequence of PT immobilized on Streptavidin beads (P04977 35-269 limits assumed): as the sequence (P04977 35-269 limits assumed) above
Sequence of PT immobilized on Streptavidin beads (P04978 28-226 limits assumed, further chain): as the sequence (P04978 28-226 limits assumed, further chain) above
Sequence of PT immobilized on Streptavidin beads (P04979 29-227 limits assumed, further chain): as the sequence (P04979 29-227 limits assumed, further chain) above
Sequence of PT immobilized on Streptavidin beads (P0A3R5 43-152 limits assumed, further chain): as the sequence (P0A3R5 43-152 limits assumed, further chain) above
Sequence of PT immobilized on Streptavidin beads (P04981 35-133 limits assumed, further chain): as the sequence (P04981 35-133 limits assumed, further chain) above

purified Pertussis Toxin = test: binding of purified PT to peptides immobilized on streptavidin sepharose; set-up: species or system Bordetella pertussis; settings: ~200 pmol peptide on streptavidin sepharose, 100 pmol purified PT, gel, silver staining
Sequence of purified Pertussis Toxin (P04977 35-269 limits assumed): as the sequence (P04977 35-269 limits assumed) above
Sequence of purified Pertussis Toxin (P04978 28-226 limits assumed, further chain): as the sequence (P04978 28-226 limits assumed, further chain) above
Sequence of purified Pertussis Toxin (P04979 29-227 limits assumed, further chain): as the sequence (P04979 29-227 limits assumed, further chain) above
Sequence of purified Pertussis Toxin (P0A3R5 43-152 limits assumed, further chain): as the sequence (P0A3R5 43-152 limits assumed, further chain) above
Sequence of purified Pertussis Toxin (P04981 35-133 limits assumed, further chain): as the sequence (P04981 35-133 limits assumed, further chain) above

PT [4] = test: estimation of peptides binding capacity (fraction of binding active peptide); set-up: species or system Bordetella pertussis; settings: 20 pmol sepharose-immobilized peptide, 100 pmol PT (500 nM); 1:1 binding assumed
Protocol: For estimation of peptides binding capacity 20 pmol of sepharose-immobilized peptides were incubated with an excess of 100 pmol PT in a volume of 200 μl HEPES buffer (corresponds to 500 nM PT). After washing, the fraction of peptide-streptavidin sepharose bound PT was quantified by gel analysis. This allows directly to calculate the fraction of binding active peptide under the applied conditions (assuming the PT/peptide binding ratio is 1:1). Under the assumption that a concentration of 500 nM PT is high enough to reach Bmax for all peptides. The values presented therein are estimations for the expectable binding capacities of the peptides. An exact evaluation of binding capacity (Bmax) and dissociation constant (KD) of the most suitable binder may also be performed.

PT [5] = test: stability of PT/peptide complexes, BIAcore 2000; format: binding, Bordetella pertussis; settings: for pH range stability of the complex (stable): PT/peptide complex, instable at pH 2.5 or 10.5
Protocol: The stability of PT/peptide complexes were investigated using the BIAcore 2000 instrument under different pH and salt conditions that were shown before not to interfere with the PT hexamer stability. 500-1000 RU of the synthetic peptides were immobilized on BIAcore streptavidin chips. To allow binding of PT to the immobilized peptides, 20 nM purified PT in HEPES buffer was injected for 1 minute. After equilibration with HBS/EP running buffer (0.01 M HEPES pH 7.4, 0.15 M NaCl 3 mM EDTA 0.005% polysorbate 20 (v/v)) the PT/peptide complexes were washed by injection of • (a) 100 mM carbonate buffer at pH 10.5 and 9.5 • (b) 10 mM acetate buffer at pH 5.5, 5.0, 4.5, and 4.0 • (c) 10 mM glycine buffer at pH 3.0 and 2.5 • (d) 0.5, 1.0, 1.5, 2.0 M NaCl in 10 mM acetate buffer, pH 6.0, • (e) 0.5, 1.0, 1.5, 2.0 M NaCl in 50 mM Tris/HCl buffer, pH 8.5, • (f) 0.5, 1.0, 1.5, 2.0 M KCl in 10 mM acetate buffer, pH 6.0, • (g) 0.5, 1.0, 1.5, 2.0 M KCl in 50 mM Tris/HCl buffer, pH 8.5, • (h) 0.5, 1.0, 1.5, 2.0 M NaCl in 10 mM acetate buffer, pH 6.0, • (i) 0.5, 1.0, 1.5, 2.0 M NaCl in 50 mM Tris/HCl buffer, pH 8.5.
After the end of each buffer injection, the chip was equilibrated with HBS/EP running buffer. The loss of PT hexamer on the chip under the applied buffer conditions (difference of measured RU signal before and after buffer injection) reflects the PT/peptide complex stability.

PT [6] = format: binding, Bordetella pertussis; settings: input of 400 pmol peptide to 1 μl streptavidin sepharose
PT [7] = test: reutilization of peptide sepharose for repeated PT binding and elution; set-up: species or system Bordetella pertussis; settings: 4 cycles of PT binding, carbonate pH 10.5 elution, 10 mM HCl regeneration
Protocol: For binding of PT each peptide streptavidin sepharose was incubated with 400 μl sample B (adjusted to pH 7.0-7.5 by addition of HC1) for 1 hour at RT and washed 4 times with 50 mM Tris/HC1, pH 7.5 (each 200 μl). PT was eluted by 4 consecutive elutions with 100 mM Carbonate buffer at pH 10.5 (each 20 μl). Subsequently the column matrices were regenerated by three washes with 10 mM HC1 (l×20 μl, 2×100 μl) and afterwards neutralized by two washes with 200 μl 50 mM Tris/HC1, pH 7.5. This binding, elution and regeneration procedure was applied to the peptide sepharose for three additional times. […] (FIG. 25). • 5. Large-scale FPLC-Purification of PT

PT [8] = format: binding, Bordetella pertussis
[9] = tested on: chip immobilized biotinylated PT; settings: BIAcore streptavidin chip
Sequence of chip immobilized biotinylated PT (P04977 35-269 limits assumed): as the sequence (P04977 35-269 limits assumed) above
Sequence of chip immobilized biotinylated PT (P04978 28-226 limits assumed, further chain): as the sequence (P04978 28-226 limits assumed, further chain) above
Sequence of chip immobilized biotinylated PT (P04979 29-227 limits assumed, further chain): as the sequence (P04979 29-227 limits assumed, further chain) above
Sequence of chip immobilized biotinylated PT (P0A3R5 43-152 limits assumed, further chain): as the sequence (P0A3R5 43-152 limits assumed, further chain) above
Sequence of chip immobilized biotinylated PT (P04981 35-133 limits assumed, further chain): as the sequence (P04981 35-133 limits assumed, further chain) above
Source text: The quality of the biotinylation reaction was controlled by analysis of the interaction of biotinylated PT with a BIAcore streptavidin chip using BIAcore instrument (BIAcore 2000).

Sequence of PT immobilized on a CM5 chip (P04977 35-269 limits assumed): as the sequence (P04977 35-269 limits assumed) above
Sequence of PT immobilized on a CM5 chip (P04978 28-226 limits assumed, further chain): as the sequence (P04978 28-226 limits assumed, further chain) above
Sequence of PT immobilized on a CM5 chip (P04979 29-227 limits assumed, further chain): as the sequence (P04979 29-227 limits assumed, further chain) above
Sequence of PT immobilized on a CM5 chip (P0A3R5 43-152 limits assumed, further chain): as the sequence (P0A3R5 43-152 limits assumed, further chain) above
Sequence of PT immobilized on a CM5 chip (P04981 35-133 limits assumed, further chain): as the sequence (P04981 35-133 limits assumed, further chain) above

CC[C@H](C)[C@H](NC(=O)[C@H](CO)NC(=O)[C@H](CC(C)C)NC(=O)[C@H](CCCNC(=N)N)NC(=O)[C@H](CO)NC(=O)[C@H](CCCNC(=N)N)NC(=O)[C@H](Cc1c[nH]cn1)NC(=O)[C@@H]1CCCN1C(=O)[C@H](CCCNC(=N)N)NC(=O)[C@H](CC(=O)O)NC(=O)[C@H](Cc1c[nH]c2ccccc12)NC(=O)CNC(=O)[C@@H](NC(=O)[C@H](CC(=O)O)NC(=O)[C@H](Cc1ccc(O)cc1)NC(=O)[C@H](Cc1c[nH]c2ccccc12)NC(=O)[C@@H](NC(=O)[C@H](CCC(=O)O)NC(=O)[C@H](CC(N)=O)NC(=O)[C@H](CC(C)C)NC(=O)[C@@H]1CCCN1C(=O)[C@@H](NC(=O)[C@@H](NC(=O)[C@H](CC(N)=O)NC(=O)[C@H](CO)NC(=O)[C@H](CCCNC(=N)N)NC(=O)COCCOCCNC(=O)CCCC[C@@H]1SC[C@@H]2NC(=O)N[C@@H]21)C(C)C)[C@@H](C)CC)C(C)C)[C@@H](C)O)C(=O)N[C@@H](CC(=O)O)C(=O)N[C@@H](CC(=O)O)C(=O)N[C@@H](CC(=O)O)C(=O)N[C@@H](C)C(=O)O [pp26 9n] (HELM PEPTIDE1{[O=C1N[C@H]2[C@H](CS[C@H]2CCCCC(=O)[*:2])N1].[O=C(COCCOCCN[*:1])[*:2]].R.S.N.V.I.P.L.N.E.V.W.Y.D.T.G.W.D.R.P.H.R.S.R.L.S.I.D.D.D.A}$$$$V2.0)
Association rate constant kon [1]: 130000 M⁻¹ s⁻¹ | Dissociation rate constant koff [1]: 10^−3 s^−1

DGSFSGF [3G2]
PT-binding capacity (PT [2]): PT-binding capacity

MGRGSHHHHHHARSNVIPLNEVWYDTGWDRPHRSRLSIDDDANAPKASAI [PP26 variant 9]
target binding to PT in the presence of AP process fluids [3]: not reduced

MGRGSHHHHHHARSSHCRHRNCHTITRGNMRIETPNNIRKDANAPKASAI [PP26 variant 5]
target binding to PT in the presence of AP process fluids [3]: not reduced

MGRGSHHHHHHARSTMNTNRMDIQRLMTNHVKRDSSPGSIDANAPKASAI [PP26 variant 6]
target binding to PT in the presence of AP process fluids [3]: not reduced

MHHHHHHSGSSSGSGCVKKDELCARWDLVCCEPLECIYTSELYATCGSGSSGSS [gurmarin variant 9]
target binding to PT in the presence of AP process fluids [3]: not influenced

MHHHHHHSGSSSGSGCVKKDELCELAVDECCEPLECFQMGHGFKRCGSGSSGSS [gurmarin variant 10]
target binding to PT in the presence of AP process fluids [3]: not influenced

MHHHHHHSGSSSGSGCVKKDELCELAVDECCEPLECTKGDLGFRKCGSGSSGSS [gurmarin variant 19]
target binding to PT in the presence of AP process fluids [3]: not influenced

NGSFSGC [3G8]
PT-binding capacity (PT [2]): PT-binding capacity

NGSFSGF [3G5]
PT-binding capacity (PT [2]): PT-binding capacity

Pertussis toxin [PT]
pH range over which Pertussis toxin hexamer is stable (BIAcore, buffers pH 2-10.5): 2.5-10.5 pH | PT hexamer stability (%) (pH 2): 93% | PT hexamer stability (%) (pH 2.5): 98% | PT hexamer stability (%) (pH 3): 100% | PT hexamer stability (%) (pH 4): 100% | PT hexamer stability (%) (pH 4.5): 100% | PT hexamer stability (%) (pH 5): 100% | PT hexamer stability (%) (pH 5.5): 100% | PT hexamer stability (%) (pH 8.5): 100% | PT hexamer stability (%) (pH 9.6): 98% | PT hexamer stability (%) (pH 10.5): 95%

RSSHCRHRNCHTITRGNMRIETPNNIRKDA [pp26 5n]
binding to purified PT (purified Pertussis Toxin): clear binding | Fraction of binding active peptide (PT [4]): > 5%

RSSHCRHRNCHTITRGNMRIETPNNIRKDAK [pp26 5c]
binding to purified PT (purified Pertussis Toxin): clear binding

RSWRDTRKLHMRHYFPLAIDSYWDHTLRDA [pp26 15n]
binding to purified PT (purified Pertussis Toxin): clear binding | Fraction of binding active peptide (PT [4]): >12.5% | pH range stability of the complex (stable) (PT [5]): 3-9 pH | KCl stability of the complex (stable) (PT [5]; pH 6): 2 M | MgCl2 stability of the complex (stable) (PT [5]; pH 6): to 2M | NaCl stability of the complex (stable) (PT [5]; pH 6): 2 M | KCl stability of the complex (stable) (PT [5]; pH 8.5): 2 M | MgCl2 stability of the complex: complete elution (PT [5]; pH 8.5): not | NaCl stability of the complex (stable) (PT [5]; pH 8.5): 2 M | MgCl2 stability of the complex: Elution / destabilized (PT [5]; pH 8.5 (50 mM Tris/HCl)): Elution ≧1.5, M

SGCVKKDELCARWDLVCCEPLECIYTSELYATCG [gurmarin 9n]
binding to purified PT (purified Pertussis Toxin): clear binding | Fraction of binding active peptide (PT [4]): >12.5% | NaCl in buffer that interferes with PT/peptide complex stability (PT [5]): 2.5 M | pH range stability of the complex (stable) (PT [5]): 3-9 pH | KCl stability of the complex (stable) (PT [5]; pH 8.5): strong sensitive to salt | NaCl stability of the complex (stable) (PT [5]; pH 8.5): strong sensitive to salt

SGCVKKDELCELAIDECCEPLECTKGDLGFRKCG [gurmarin 19n]
binding to purified PT (purified Pertussis Toxin): clear binding

SGCVKKDELCELAVDECCEPLECFQMGHGFKRCG [gurmarin 10n]
binding to purified PT (purified Pertussis Toxin): clear binding | Fraction of binding active peptide (PT [4]): > 5%

SGCVKKDELCSQSVPMCCEPLECKWFNENYGICGS [gurmarin 15n]
binding to purified PT (purified Pertussis Toxin): clear binding | pH range stability of the complex (stable) (PT [5]): 3-9 pH | KCl stability of the complex (stable) (PT [5]; pH 6): sensitive to salt | MgCl2 stability of the complex: Elution (PT [5]; pH 6): Elution ≧1M, | MgCl2 stability of the complex: complete elution (PT [5]; pH 6): elution ≧2M | NaCl stability of the complex (stable) (PT [5]; pH 6): sensitive to salt | KCl stability of the complex (stable) (PT [5]; pH 8.5): sensitive to salt | MgCl2 stability of the complex: complete elution (PT [5]; pH 8.5): elution ≧2M | NaCl stability of the complex (stable) (PT [5]; pH 8.5): sensitive to salt | Amount of elutable peptide (effectively bound fraction of peptide) (PT [6]): 50 pmol | reusability of peptide loaded sepharose (PT [7]): may be re-utilized

asialofetuin
Amount of PT bound (PT [8]): ~8 pmol and ~16 pmol | binding signal to immobilized PT [9]: ~400 RU | unspecific binding to the control cell [9]: ~100 RU
